Target: human Nav1.8 (Homo sapiens (Human), UniProt Q9Y5Y9)
Assay: E-VIPR optical membrane potential assay with electrical stimulation
Format: cell-based
Conditions: HEK cells expressing human Nav1.8
Source text: Sodium channels are voltage-dependent proteins that can be activated by inducing membrane voltage changes by applying electric fields. […] The instrument comprises a microtiter plate handler, an optical system for exciting the coumarin dye while simultaneously recording the coumarin and oxonol emissions, a waveform generator, a current- or voltage-controlled amplifier, and a device for inserting electrodes in well. Under integrated computer control, this instrument passes user-programmed electrical stimulus protocols to cells within the wells of the microtiter plate.
24 hours before the assay on E-VIPR, HEK cells expressing human Nav1.8 were seeded in 384-well poly-lysine coated plates at 15,000-20,000 cells per well. […] Cells were grown in vented cap flasks, in 90% humidity and 5% CO2.
To make the solution added volume of 10% Pluronic F127 stock equal to volumes of CC2-DMPE+DiSBAC6(3). The order of preparation was first mixing Pluronic and CC2-DMPE, then adding DiSBAC6(3) while vortexing, then adding Bath1+β-Cyclodextrin.
1) Pre-spotted compounds (in neat DMSO) into compound plates. […] Final compound plate volume was 80 μL (80-fold intermediate dilution from 1 μL DMSO spot; 160-fold final dilution after transfer to cell plate).
2) Prepared Hexyl Dye Solution.
3) Prepared cell plates. On the day of the assay, medium was aspirated and cells were washed three times with 100 μL of Bath1 Solution, maintaining 25 μL residual volume in each well.
4) Dispensed 25 μL per well of Hexyl Dye Solution into cell plates. Incubated for 20-35 minutes at room temp or ambient conditions.
5) Dispensed 80 μL per well of Bath1 into compound plates. Acid Yellow-17 (1 mM) was added and Potassium Chloride was altered from 4.5 to 20 mM depending on the NaV subtype and assay sensitivity.
6) Washed cell plates three times with 100 μL per well of Bath1, leaving 25 μL of residual volume. Then transferred 25 uL per well from Compound Plates to Cell Plates. Incubated for 20-35 minutes at room temp/ambient condition.
7) Read Plate on E-VIPR. […] A pre-stimulus recording was performed for 0.5 seconds to obtain the un-stimulated intensities baseline. The stimulatory waveform was followed by 0.5 seconds of post-stimulation recording to examine the relaxation to the resting state.
Data was analyzed and reported as normalized ratios of emission intensities measured in the 460 nm and 580 nm channels. The response as a function of time was reported as the ratios obtained using the following formula: […]
The data was further reduced by calculating the initial (Ri) and final (Rf) ratios. These were the average ratio values during part or all of the pre-stimulation period, and during sample points during the stimulation period. The response to the stimulus R=Rf/Ri was then calculated and reported as a function of time.
Control responses were obtained by performing assays in the presence of a compound with the desired properties (positive control), such as tetracaine, and in the absence of pharmacological agents (negative control). Responses to the negative (N) and positive (P) controls were calculated as above. The compound antagonist activity A is defined as:
[formula] where R is the ratio response of the test compound

Chain of human Nav1.8 (Q9Y5Y9 whole entry): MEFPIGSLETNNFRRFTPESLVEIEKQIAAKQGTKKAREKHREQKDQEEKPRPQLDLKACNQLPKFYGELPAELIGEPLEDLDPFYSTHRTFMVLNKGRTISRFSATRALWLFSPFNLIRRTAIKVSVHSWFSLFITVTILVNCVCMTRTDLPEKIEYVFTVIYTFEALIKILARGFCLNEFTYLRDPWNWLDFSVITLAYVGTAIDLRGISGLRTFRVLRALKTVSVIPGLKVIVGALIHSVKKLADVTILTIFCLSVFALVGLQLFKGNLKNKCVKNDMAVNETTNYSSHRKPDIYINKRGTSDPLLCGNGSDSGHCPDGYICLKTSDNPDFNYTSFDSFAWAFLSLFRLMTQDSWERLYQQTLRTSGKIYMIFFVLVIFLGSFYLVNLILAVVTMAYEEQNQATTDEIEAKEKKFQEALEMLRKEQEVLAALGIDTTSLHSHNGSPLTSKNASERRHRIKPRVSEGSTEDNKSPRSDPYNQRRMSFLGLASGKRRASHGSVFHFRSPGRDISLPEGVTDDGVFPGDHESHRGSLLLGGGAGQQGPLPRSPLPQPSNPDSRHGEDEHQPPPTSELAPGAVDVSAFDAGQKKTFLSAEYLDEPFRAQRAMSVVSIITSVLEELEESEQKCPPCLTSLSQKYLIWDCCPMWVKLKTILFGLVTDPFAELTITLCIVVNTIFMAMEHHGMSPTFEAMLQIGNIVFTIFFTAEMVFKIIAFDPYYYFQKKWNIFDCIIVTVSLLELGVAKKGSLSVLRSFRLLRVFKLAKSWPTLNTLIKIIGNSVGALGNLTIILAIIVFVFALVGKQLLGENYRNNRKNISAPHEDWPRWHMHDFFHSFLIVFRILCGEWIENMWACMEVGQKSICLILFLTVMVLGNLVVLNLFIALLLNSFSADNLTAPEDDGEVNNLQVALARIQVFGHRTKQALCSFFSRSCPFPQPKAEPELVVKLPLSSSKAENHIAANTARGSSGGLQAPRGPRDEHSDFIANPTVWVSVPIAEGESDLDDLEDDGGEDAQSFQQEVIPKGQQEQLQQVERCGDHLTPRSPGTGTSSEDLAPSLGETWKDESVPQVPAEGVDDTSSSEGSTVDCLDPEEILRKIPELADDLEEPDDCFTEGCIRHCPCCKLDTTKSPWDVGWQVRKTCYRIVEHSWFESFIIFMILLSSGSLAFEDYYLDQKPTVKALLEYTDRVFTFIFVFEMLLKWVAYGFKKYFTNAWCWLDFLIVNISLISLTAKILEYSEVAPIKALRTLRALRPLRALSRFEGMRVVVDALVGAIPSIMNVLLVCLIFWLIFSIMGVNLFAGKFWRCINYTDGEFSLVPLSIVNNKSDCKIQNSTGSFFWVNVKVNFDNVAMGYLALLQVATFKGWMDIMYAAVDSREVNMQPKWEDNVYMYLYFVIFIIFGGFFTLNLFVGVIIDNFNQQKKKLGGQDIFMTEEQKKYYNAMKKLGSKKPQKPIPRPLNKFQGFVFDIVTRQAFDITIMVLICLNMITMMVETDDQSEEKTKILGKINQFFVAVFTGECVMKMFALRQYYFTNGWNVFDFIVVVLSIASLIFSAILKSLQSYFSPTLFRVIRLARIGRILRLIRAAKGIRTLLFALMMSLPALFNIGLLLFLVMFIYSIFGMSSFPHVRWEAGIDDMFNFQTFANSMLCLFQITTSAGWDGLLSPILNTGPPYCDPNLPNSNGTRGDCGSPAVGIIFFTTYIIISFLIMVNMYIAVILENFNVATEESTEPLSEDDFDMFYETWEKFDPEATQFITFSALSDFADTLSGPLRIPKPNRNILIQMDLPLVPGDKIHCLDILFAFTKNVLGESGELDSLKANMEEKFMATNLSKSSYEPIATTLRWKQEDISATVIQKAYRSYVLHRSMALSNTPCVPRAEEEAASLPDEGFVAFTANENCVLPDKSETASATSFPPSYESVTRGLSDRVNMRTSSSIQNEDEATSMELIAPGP

Molecule | IC50 [µM]
COc1cc(F)ccc1Oc1ccc(Cl)cc1C(=O)Nc1cc[nH]c(=O)c1 [Compound 70, 5-chloro-2-(4-fluoro-2-methoxyphenoxy)-N-(2-oxo-1,2-dihydropyridin-4-yl)benzamide] | 0.013
O=C(Nc1cc[nH]c(=O)c1)c1cc(C(F)(F)F)ccc1OC1C[C@@H]2C[C@@H]2C1 (some centres unmarked) [Compound 135] | 1.65
COc1ccc(Oc2cc(C(F)(F)F)ccc2C(=O)Nc2cc[nH]c(=O)c2)cc1F [Compound 81, 2-(3-fluoro-4-methoxyphenoxy)-N-(2-oxo-1,2-dihydropyridin-4-yl)-4-(trifluoromethyl)benzamide] | 0.026
COc1ccc(Oc2cc(C(F)(F)F)ccc2C(=O)Nc2cc[nH]c(=O)c2)c(F)c1 [Compound 84, 2-(2-fluoro-4-methoxyphenoxy)-N-(2-oxo-1,2-dihydropyridin-4-yl)-4-(trifluoromethyl)benzamide] | 0.046
Cn1ccc(NC(=O)c2ccc(C(C)(C)C)cc2Oc2ccc(C(F)(F)F)nc2)cc1=O [Compound 148, 4-(tert-butyl)-N-(1-methyl-2-oxo-1,2-dihydropyridin-4-yl)-2-((6-(trifluoromethyl)pyridin-3-yl)oxy)benzamide] | 0.45
COc1ccc(Oc2cc(C(F)(F)F)ccc2C(=O)Nc2cc[nH]c(=O)c2)c(Cl)c1F [Compound 110, 2-(2-chloro-3-fluoro-4-methoxyphenoxy)-N-(2-oxo-1,2-dihydropyridin-4-yl)-4-(trifluoromethyl)benzamide] | 0.89
CC(C)COc1cc(C(F)(F)F)ccc1C(=O)Nc1cc[nH]c(=O)c1 [Compound 117, 2-isobutoxy-N-(2-oxo-1,2-dihydropyridin-4-yl)-4-(trifluoromethyl)benzamide] | 1.15
CC1(C)CC1COc1ccc(C(F)(F)F)cc1C(=O)Nc1cc[nH]c(=O)c1 (centres unmarked) [Compound 134, 2-((2,2-dimethylcyclopropyl)methoxy)-N-(2-oxo-1,2-dihydropyridin-4-yl)-5-(trifluoromethyl)benzamide] | 21
COc1ccc(Oc2ccc(Cl)cc2C(=O)Nc2cc[nH]c(=O)c2)cc1F [Compound 71, 5-chloro-2-(3-fluoro-4-methoxyphenoxy)-N-(2-oxo-1,2-dihydropyridin-4-yl)benzamide] | 0.092
N#Cc1ccc(Oc2ccc(C(F)(F)F)cc2C(=O)Nc2cc[nH]c(=O)c2)cc1 [Compound 25, 2-(4-cyanophenoxy)-N-(2-oxo-1,2-dihydropyridin-4-yl)-5-(trifluoromethyl)benzamide] | 1.1
O=C(Nc1cc[nH]c(=O)c1)c1cc(Cl)ccc1Oc1ccc(F)cc1F [Compound 69, 5-chloro-2-(2,4-difluorophenoxy)-N-(2-oxo-1,2-dihydropyridin-4-yl)benzamide] | 0.112
2-(4-fluorophenoxy)-N-(1-(2-hydroxyethyl)-2-oxo-1,2-dihydropyridin-4-yl)-4-(trifluoromethyl)benzamide [Compound 85] | 2.8
O=C(Nc1cc[nH]c(=O)c1)c1cc(C(F)(F)F)ccc1Oc1c(F)cccc1F [Compound 26, 2-(2,6-difluorophenoxy)-N-(2-oxo-1,2-dihydropyridin-4-yl)-5-(trifluoromethyl)benzamide] | 9.65
COc1cc(C)ccc1Oc1ccc(C(F)(F)F)cc1C(=O)Nc1cc[nH]c(=O)c1 [Compound 47, 2-(2-methoxy-4-methylphenoxy)-N-(2-oxo-1,2-dihydropyridin-4-yl)-5-(trifluoromethyl)benzamide] | 0.135
O=C(Nc1cc[nH]c(=O)c1)c1ccc(Cl)cc1Oc1c(F)cccc1F [Compound 19, 4-chloro-2-(2,6-difluorophenoxy)-N-(2-oxo-1,2-dihydropyridin-4-yl)benzamide] | 6
Cc1cc(F)ccc1Oc1cc(C(F)(F)C(F)(F)F)ccc1C(=O)Nc1cc[nH]c(=O)c1 [Compound 112, 2-(4-fluoro-2-methylphenoxy)-N-(2-oxo-1,2-dihydropyridin-4-yl)-4-(perfluoroethyl)benzamide] | 0.016
O=C(Nc1cc[nH]c(=O)c1)c1cc(OC(F)(F)F)ccc1OCCCC(F)(F)F [Compound 139, N-(2-oxo-1,2-dihydropyridin-4-yl)-2-(4,4,4-trifluorobutoxy)-5-(trifluoromethoxy)benzamide] | 3.05
CC1(C)CC1COc1cc(C(F)(F)F)ccc1C(=O)Nc1cc[nH]c(=O)c1 (centres unmarked) [Compound 124, 2-((2,2-dimethylcyclopropyl)methoxy)-N-(2-oxo-1,2-dihydropyridin-4-yl)-4-(trifluoromethyl)benzamide] | 0.485

Continued, values first:

IC50 [µM] | Molecule
1.45 | O=C(Nc1cc[nH]c(=O)c1)c1cc(OC(F)(F)F)ccc1OCCC(F)(F)F [Compound 138, N-(2-oxo-1,2-dihydropyridin-4-yl)-5-(trifluoromethoxy)-2-(3,3,3-trifluoropropoxy)benzamide]
0.002 | COc1cc(F)ccc1Oc1cc(C(F)(F)F)ccc1C(=O)Nc1cc[nH]c(=O)c1 [Compound 158, 2-(4-fluoro-2-methoxyphenoxy)-N-(2-oxo-1,2-dihydropyridin-4-yl)-4-(trifluoromethyl)benzamide]
1.4 | O=C(Nc1cc[nH]c(=O)c1)c1ccc(C(F)(F)F)cc1OCC1CC1(F)F (centres unmarked) [Compound 126, 2-((2,2-difluorocyclopropyl)methoxy)-N-(2-oxo-1,2-dihydropyridin-4-yl)-4-(trifluoromethyl)benzamide]
0.47 | Cc1ccc(Oc2ccc(OC(F)(F)F)cc2C(=O)Nc2cc[nH]c(=O)c2)cc1 [Compound 35, N-(2-oxo-1,2-dihydropyridin-4-yl)-2-(p-tolyloxy)-5-(trifluoromethoxy)benzamide]
0.26 | O=C(Nc1cc[nH]c(=O)c1)c1cc(OC(F)(F)F)ccc1Oc1ccccc1 [Compound 41, N-(2-oxo-1,2-dihydropyridin-4-yl)-2-phenoxy-5-(trifluoromethoxy)benzamide]
0.38 | O=C(Nc1cc[nH]c(=O)c1)c1c(Oc2ccc(F)cc2)cccc1C(F)(F)F [Compound 43, 2-(4-fluorophenoxy)-N-(2-oxo-1,2-dihydropyridin-4-yl)-6-(trifluoromethyl)benzamide]
0.029 | O=C(Nc1cc[nH]c(=O)c1)c1ccc(C(F)(F)F)cc1Oc1ccc(F)cc1Cl [Compound 77, 2-(2-chloro-4-fluorophenoxy)-N-(2-oxo-1,2-dihydropyridin-4-yl)-4-(trifluoromethyl)benzamide]
0.069 | O=C(Nc1cc[nH]c(=O)c1)c1cc(OC(F)(F)F)ccc1Oc1ccc(F)cc1 [Compound 38, 2-(4-fluorophenoxy)-N-(2-oxo-1,2-dihydropyridin-4-yl)-5-(trifluoromethoxy)benzamide]
0.069 | O=C(Nc1cc[nH]c(=O)c1)c1cc(Cl)ccc1Oc1ccc(F)cc1 [Compound 67, 5-chloro-2-(4-fluorophenoxy)-N-(2-oxo-1,2-dihydropyridin-4-yl)-benzamide]
0.03 | COc1c(F)cccc1Oc1ccc(C(F)(F)F)cc1C(=O)Nc1cc[nH]c(=O)c1 [Compound 54, 2-(3-fluoro-2-methoxyphenoxy)-N-(2-oxo-1,2-dihydropyridin-4-yl)-5-(trifluoromethyl)benzamide]
0.005 | COc1cc(F)ccc1Oc1cc(C(F)(F)F)cc(C(F)(F)F)c1C(=O)Nc1cc[nH]c(=O)c1 [Compound 154, 2-(4-fluoro-2-methoxyphenoxy)-N-(2-oxo-1,2-dihydropyridin-4-yl)-4,6-bis(trifluoromethyl)benzamide]

Reference: patent US9051270B2, “Pyridone amides as modulators of sodium channels” (Vertex Pharmaceuticals Incorporated, priority 2013, dated 2015)
